Measurements taken from ChEMBL document CHEMBL5465560, “Selectivity Literature for EUbOPEN Chemogenomic Library” (2024).

How the values were obtained:
[1] = target: Prostacyclin receptor (Homo sapiens) (UniProt P43119); test: Selectivity interaction (Eurofins CEREP Diversity Profile (receptors and ion channels)) EUB0000279b PTGIR; details: at 10 µM
[2] = target: T1, Serine/threonine-protein kinase 3 (Homo sapiens) (UniProt Q13188); test: Selectivity interaction (Ambit KINOMEscan and KiNATiv profiling in Jurkat cells) EUB0000090b STK3; format: cell-based; details: at 1 µM
T1 sequence (whole entry): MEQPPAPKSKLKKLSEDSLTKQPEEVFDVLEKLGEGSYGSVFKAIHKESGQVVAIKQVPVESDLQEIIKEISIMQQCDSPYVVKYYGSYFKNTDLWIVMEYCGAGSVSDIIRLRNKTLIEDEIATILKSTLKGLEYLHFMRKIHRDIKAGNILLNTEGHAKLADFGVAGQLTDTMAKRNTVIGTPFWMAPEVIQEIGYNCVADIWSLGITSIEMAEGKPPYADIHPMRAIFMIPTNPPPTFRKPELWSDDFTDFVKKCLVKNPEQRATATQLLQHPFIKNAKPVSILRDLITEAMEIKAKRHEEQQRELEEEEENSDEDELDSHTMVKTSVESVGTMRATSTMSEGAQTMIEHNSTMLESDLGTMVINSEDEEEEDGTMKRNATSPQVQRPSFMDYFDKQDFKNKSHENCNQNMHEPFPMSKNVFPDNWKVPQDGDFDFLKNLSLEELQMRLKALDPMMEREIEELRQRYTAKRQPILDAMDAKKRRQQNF

[3] = target: Tyrosine-protein kinase CSK (Homo sapiens) (UniProt P41240); test: Selectivity interaction (KinomeScan (DiscoverX)) EUB0000655a CSK; details: at 10 µM
[4] = target: Cyclin-dependent kinase 9 (Homo sapiens, UniProt P50750); test: Selectivity interaction (KinomeScan (DiscoverX)) EUB0001079a CDK9; details: at 1 µM
[5] = target: T2, Beta-adrenergic receptor kinase 1 (Homo sapiens) (UniProt P25098); test: Selectivity interaction (SelectScreen profiling (Invitrogen)) EUB0000607a ADRBK1; details: at 2 µM
T2 sequence (whole entry): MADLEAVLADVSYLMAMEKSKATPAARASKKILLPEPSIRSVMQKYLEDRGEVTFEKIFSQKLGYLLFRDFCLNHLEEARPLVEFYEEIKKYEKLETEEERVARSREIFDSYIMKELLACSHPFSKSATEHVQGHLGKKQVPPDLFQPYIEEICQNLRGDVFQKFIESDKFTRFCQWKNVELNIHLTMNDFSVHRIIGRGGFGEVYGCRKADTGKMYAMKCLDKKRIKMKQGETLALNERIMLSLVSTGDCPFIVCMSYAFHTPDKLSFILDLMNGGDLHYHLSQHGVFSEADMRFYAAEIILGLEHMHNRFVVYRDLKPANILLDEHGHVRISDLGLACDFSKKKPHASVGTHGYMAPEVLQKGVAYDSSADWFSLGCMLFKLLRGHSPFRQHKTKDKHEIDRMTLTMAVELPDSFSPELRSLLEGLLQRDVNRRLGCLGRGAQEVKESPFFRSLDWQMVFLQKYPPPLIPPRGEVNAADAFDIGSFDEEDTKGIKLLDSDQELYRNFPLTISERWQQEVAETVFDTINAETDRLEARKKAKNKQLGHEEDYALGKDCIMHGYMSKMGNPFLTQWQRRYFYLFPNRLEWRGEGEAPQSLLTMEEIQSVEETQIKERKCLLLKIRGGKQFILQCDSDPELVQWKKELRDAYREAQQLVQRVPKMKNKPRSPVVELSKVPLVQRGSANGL

[6] = target: Calcium/calmodulin-dependent protein kinase kinase 2 (Homo sapiens) (UniProt Q96RR4); test: Selectivity interaction (KinomeScan (DiscoverX)) EUB0001619a CAMKK2; details: at 1 µM
[7] = target: Serine/threonine-protein kinase VRK2 (Homo sapiens) (UniProt Q86Y07); details: at 10 µM
[8] = target: Ribosomal protein S6 kinase alpha-1 (Homo sapiens, UniProt Q15418); test: Selectivity interaction (ActivX KiNativ screen (kinase selectivity in THP-1 cell lysates)) EUB0000639a RPS6KA1; format: subcellular; details: lysate, at 0.01 µM
[9] = target: Tyrosine-protein kinase CSK (Homo sapiens) (UniProt P41240); test: Selectivity interaction (ProQinase) EUB0000171b CSK
[10] = target: Serine/threonine-protein kinase Nek7 (Homo sapiens) (UniProt Q8TDX7); test: Selectivity interaction (KinomeScan (DiscoverX)) EUB0000092b NEK7; details: at 10 µM
[11] = target: T3, Serine/threonine-protein kinase TAO3 (Homo sapiens) (UniProt Q9H2K8); test: Selectivity interaction (KinomeScan (DiscoverX)) EUB0000695a TAOK3; details: at 100 nM
T3 sequence (whole entry): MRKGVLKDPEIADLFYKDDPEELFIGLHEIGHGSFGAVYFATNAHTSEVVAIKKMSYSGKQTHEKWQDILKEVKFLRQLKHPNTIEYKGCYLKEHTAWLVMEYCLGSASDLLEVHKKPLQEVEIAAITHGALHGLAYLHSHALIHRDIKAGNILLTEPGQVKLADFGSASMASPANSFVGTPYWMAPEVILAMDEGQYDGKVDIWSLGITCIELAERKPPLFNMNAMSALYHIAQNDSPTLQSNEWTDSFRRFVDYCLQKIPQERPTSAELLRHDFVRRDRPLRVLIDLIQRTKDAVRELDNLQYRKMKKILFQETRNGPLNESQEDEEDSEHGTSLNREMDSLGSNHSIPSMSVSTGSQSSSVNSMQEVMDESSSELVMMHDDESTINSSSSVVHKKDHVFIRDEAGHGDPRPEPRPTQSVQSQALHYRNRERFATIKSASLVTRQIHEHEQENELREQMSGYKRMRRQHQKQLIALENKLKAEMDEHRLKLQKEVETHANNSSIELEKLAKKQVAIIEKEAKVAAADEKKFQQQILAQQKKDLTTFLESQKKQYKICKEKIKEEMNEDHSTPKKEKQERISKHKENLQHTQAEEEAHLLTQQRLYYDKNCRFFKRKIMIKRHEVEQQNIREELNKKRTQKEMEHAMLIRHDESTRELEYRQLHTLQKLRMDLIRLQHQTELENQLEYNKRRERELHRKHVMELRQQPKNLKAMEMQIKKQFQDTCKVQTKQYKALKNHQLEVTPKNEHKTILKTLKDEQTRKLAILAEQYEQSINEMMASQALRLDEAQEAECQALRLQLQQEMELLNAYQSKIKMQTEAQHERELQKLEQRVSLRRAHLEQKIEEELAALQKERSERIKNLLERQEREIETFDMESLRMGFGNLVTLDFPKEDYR

Chain of Tyrosine-protein kinase CSK (Homo sapiens) (P41240 2-450 limits assumed): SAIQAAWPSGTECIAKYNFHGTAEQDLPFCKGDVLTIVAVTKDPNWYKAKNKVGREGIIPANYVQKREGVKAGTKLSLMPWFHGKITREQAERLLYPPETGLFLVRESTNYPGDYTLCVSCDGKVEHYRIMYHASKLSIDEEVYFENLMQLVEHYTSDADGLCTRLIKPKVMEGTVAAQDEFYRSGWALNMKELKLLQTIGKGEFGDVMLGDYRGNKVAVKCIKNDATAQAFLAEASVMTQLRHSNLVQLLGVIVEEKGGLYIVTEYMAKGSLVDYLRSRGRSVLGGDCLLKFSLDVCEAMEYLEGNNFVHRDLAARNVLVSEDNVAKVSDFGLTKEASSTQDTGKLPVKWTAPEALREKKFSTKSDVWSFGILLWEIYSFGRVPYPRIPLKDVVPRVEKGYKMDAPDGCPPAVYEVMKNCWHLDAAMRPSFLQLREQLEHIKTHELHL
Chain of Calcium/calmodulin-dependent protein kinase kinase 2 (Homo sapiens) (Q96RR4 2-588 limits assumed): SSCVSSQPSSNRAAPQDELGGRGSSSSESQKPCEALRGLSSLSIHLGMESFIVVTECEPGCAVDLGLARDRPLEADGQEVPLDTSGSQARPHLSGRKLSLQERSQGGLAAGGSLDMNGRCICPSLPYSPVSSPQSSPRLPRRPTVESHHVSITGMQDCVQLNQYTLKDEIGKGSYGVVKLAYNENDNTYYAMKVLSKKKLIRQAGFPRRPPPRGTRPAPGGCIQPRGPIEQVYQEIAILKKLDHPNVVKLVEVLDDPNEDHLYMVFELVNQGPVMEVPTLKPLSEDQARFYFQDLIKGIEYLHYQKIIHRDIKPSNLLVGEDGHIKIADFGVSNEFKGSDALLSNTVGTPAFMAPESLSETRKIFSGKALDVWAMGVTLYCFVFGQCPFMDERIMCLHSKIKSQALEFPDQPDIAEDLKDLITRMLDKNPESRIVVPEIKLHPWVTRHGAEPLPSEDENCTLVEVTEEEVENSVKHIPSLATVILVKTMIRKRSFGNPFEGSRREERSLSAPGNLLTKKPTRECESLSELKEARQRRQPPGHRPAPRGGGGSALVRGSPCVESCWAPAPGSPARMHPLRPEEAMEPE
Chain of Ribosomal protein S6 kinase alpha-1 (Q15418 whole entry): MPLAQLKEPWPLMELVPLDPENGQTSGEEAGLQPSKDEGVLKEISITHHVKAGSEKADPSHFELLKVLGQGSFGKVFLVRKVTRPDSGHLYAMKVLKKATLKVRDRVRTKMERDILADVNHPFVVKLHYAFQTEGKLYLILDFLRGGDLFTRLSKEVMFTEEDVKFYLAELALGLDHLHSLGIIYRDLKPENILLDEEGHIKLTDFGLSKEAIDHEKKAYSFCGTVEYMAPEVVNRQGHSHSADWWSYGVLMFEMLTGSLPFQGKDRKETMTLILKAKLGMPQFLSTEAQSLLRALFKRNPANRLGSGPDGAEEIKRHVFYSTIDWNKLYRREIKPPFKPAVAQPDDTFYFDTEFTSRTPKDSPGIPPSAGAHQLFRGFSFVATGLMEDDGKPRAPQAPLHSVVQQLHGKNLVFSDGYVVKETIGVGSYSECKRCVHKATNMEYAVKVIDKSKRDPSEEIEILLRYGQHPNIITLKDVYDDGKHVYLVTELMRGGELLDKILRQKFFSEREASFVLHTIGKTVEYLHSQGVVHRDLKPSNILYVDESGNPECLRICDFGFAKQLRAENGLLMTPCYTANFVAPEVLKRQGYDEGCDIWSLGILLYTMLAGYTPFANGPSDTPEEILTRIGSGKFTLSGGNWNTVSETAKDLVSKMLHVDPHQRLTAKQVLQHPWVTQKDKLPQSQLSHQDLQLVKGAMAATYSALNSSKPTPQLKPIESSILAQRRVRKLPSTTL
Chain of Serine/threonine-protein kinase VRK2 (Homo sapiens) (Q86Y07 whole entry): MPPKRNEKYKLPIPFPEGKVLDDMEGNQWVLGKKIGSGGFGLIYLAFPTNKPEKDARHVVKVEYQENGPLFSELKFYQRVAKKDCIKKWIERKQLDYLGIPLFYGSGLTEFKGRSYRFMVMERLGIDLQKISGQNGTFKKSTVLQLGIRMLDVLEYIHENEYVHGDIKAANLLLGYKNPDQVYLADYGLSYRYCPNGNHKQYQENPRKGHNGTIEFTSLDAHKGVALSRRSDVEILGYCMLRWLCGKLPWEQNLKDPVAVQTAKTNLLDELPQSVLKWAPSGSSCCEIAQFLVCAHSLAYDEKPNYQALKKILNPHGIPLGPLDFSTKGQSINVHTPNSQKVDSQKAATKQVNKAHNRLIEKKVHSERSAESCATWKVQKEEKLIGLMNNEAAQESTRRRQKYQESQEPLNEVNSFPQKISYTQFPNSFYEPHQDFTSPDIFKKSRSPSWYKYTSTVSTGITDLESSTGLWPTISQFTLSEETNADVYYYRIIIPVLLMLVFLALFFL
Chain of Cyclin-dependent kinase 9 (P50750 whole entry): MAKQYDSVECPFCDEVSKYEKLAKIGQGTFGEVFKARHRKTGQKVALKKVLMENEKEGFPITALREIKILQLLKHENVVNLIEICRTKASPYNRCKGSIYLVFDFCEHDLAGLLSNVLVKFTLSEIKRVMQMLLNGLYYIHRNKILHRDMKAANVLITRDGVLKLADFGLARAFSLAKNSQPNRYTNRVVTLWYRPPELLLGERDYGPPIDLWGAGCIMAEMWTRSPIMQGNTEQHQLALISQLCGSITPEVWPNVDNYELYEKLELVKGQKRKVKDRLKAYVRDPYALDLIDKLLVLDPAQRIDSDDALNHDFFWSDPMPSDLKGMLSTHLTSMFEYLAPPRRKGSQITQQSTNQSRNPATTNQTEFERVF
Chain of Prostacyclin receptor (Homo sapiens) (P43119 whole entry): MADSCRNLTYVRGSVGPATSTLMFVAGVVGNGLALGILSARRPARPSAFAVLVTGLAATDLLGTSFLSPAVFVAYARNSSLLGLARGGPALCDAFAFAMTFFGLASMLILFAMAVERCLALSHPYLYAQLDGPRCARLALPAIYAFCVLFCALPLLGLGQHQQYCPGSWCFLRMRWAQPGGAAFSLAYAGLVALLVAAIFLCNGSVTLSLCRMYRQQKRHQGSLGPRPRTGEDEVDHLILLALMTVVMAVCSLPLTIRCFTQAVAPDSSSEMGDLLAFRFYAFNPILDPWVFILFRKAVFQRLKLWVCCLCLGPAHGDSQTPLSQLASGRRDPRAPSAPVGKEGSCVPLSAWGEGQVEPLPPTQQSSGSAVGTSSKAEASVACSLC
Chain of Serine/threonine-protein kinase Nek7 (Homo sapiens) (Q8TDX7 whole entry, looked up): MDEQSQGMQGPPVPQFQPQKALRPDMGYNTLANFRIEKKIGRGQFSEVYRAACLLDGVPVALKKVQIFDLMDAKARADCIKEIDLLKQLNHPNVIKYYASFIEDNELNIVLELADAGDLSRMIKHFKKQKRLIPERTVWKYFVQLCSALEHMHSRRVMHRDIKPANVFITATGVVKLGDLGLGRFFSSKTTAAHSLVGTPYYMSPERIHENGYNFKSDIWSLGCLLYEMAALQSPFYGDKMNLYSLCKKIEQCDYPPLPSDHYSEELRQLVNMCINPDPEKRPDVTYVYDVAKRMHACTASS

CC(=O)c1cc(-c2ccccc2OCC2CC2)c2ncccn12
% of control [1]: 108%

CN(C)C/C=C/C(=O)Nc1ccc(C(=O)N2CCCC(Nc3ncc(Cl)c(-c4c[nH]c5ccccc45)n3)C2)cc1 (configuration not stated)
% of control [2]: 92%

CN(C)CCOc1ccc(-c2nc(-c3ccncc3)c(-c3ccc4c(c3)CC/C4=N\O)[nH]2)cc1
% of control [3]: 97%

Nc1cnc(N2CCc3cc(S(=O)(=O)Nc4c(F)cc(Cl)cc4F)cc(N4CCCC4=O)c32)nc1 [TP-020n]
% of control [4]: 100%

CNC(=O)Nc1ccc(-c2nc(N3CC4CCC(C3)O4)c3cnn(C4CCC5(CC4)OCCO5)c3n2)cc1
% of inhibition [5]: -1%

N#Cc1cccc(-c2c[nH]c3ncnc(N4CCOCC4)c23)c1
% of control [6]: 78%

Cc1cc([C@@H](C)Nc2ccccc2C(=O)O)c2nc(N3CCOCC3)cc(=O)n2c1 [AZD-6482]
% of control [7]: 100%

CC[C@@H]1[C@H](F)C(=O)N[C@@H]1COc1nccc2cc(C(N)=O)c(OC)cc12 [ZIMLOVISERTIB]
% of inhibition [8]: 16.9%

C=CC(=O)Nc1cccc(C(=O)Nc2ccc(Nc3cc(-c4[nH]c(SC)nc4C)ccn3)cc2)c1
% of control ([9]; at 1 µM): 87% | % of control ([9]; at 5 µM): 81%

CCC(=O)N1CCN(c2ccc(-n3c(=O)ccc4cnc5ccc(-c6cnc7ccccc7c6)cc5c43)cc2C(F)(F)F)CC1
% of control [10]: 90%

Cc1cc(F)c(C(=O)Nc2cccc(-c3nncn3C(C)C)n2)cc1-n1cnc(C2CC2)c1
% of control [11]: 100%
